According to patent publication US20250326748A1, “COMPOUNDS AND METHODS FOR MODULATING SPLICING” (REMIX THERAPEUTICS INC., priority 2022, published 2025):
Counter-ions that a name gives are not always drawn. Like-named read-outs stand apart in the source and are kept apart here.

Assays:
Type in all cases: cell-based, human
[1] = system: HTT mRNA; experiment: Splicing RT-qPCR assay, HTT canonical (CJ) and alternative (AJ) junction mRNA; settings: Homo sapiens; for IC50: canonical junction mRNA; for AC50: alternative junction mRNA, read-out: HTT AJ (AC50, increase in AJ mRNA)
Summary of the method: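 Splicing switches are scored by TaqMan qPCR on cell lysate, comparing abundance of the normal exon junction with the new junction formed when the alternative exon is included. A673 results are referenced to PPIA and K562 results to GAPDH or GUSB. Compound exposure lasts 24 h.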

[2] = system: HiBiT-tagged MYB protein; experiment: HiBiT protein abundance assay, MYB (K562 HiBiT knock-in); settings: HiBiT knock-in cells, 24 hours
Summary of the method: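 Endogenously HiBiT-tagged K562 knock-in lines treated 24 h at 37 °C with 10-point 3-fold dilutions (top 10 μM final, DMSO ≤0.25%) in IMDM+1% FBS. Lytic Nano-Glo luminescence normalized to DMSO and unmodified K562 controls; four-parameter fit gives 50%-abundance concentration (IC50).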

[3] = system: Target C; experiment: HiBiT protein abundance assay, Target C (K562 HiBiT knock-in); settings: HiBiT knock-in cells, 24 hours
Summary of the method: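 K562 HiBiT knock-in cells (10000/well) in IMDM + 1% FBS were treated for 24 h at 37° C. with a 10-point 3-fold dilution series (top 10 μM final), with DMSO ≤0.25%. Unmodified K562 served as baseline. HiBiT lytic luminescence was normalized to controls, and IC50 was interpolated at 50% from a four-parameter fit.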

[4] = 24 h, RT-qPCR, A673 or K562 cells, 24 hours treatment, read-out: HTT CJ (IC50, decrease in CJ mRNA)
[5] = qPCR panel, read-out: HTT CJ (decrease in CJ mRNA levels, IC50)
[6] = RT-qPCR, A673 or K562 cells, 24 hours treatment

SMILES	IC50 [1, 4] [µM]	IC50 [1, 5] [µM]	IC50 [2] [µM]	IC50 [3] [µM]	AC50 [1, 6] [µM]
Cc1c(O)c(-c2cc(Cl)c3cc(N(C)C4CCNC4)cnc3n2)cc2cn(C)nc12 (centres unmarked) [Compound 204, 5-[4-chloro-6-(367pyrrolidine-3-ylamino)-1,8-naphthyridin-2-yl]-2,7-dimethylindazol-6-ol]	1 to 10	1 to 10	0.1 to 1	1 to 10	1 to 10
Cc1cn2cc(-c3cnc4nc(C5CCNCC5)ccc4c3)cc(C)c2n1 [Compound 201]	> 10	< 0.1	1 to 10	> 10	> 10
COc1nc(-c2cc3cn(C)nc3c(C)c2O)nc2ncc(N3CCC(N(C)C)CC3)cc12 [Compound 163, 5-{6-[4-(dimethylamino)piperidin-1-yl]-4-methoxypyrido[2,3-d]pyrimidin-2-yl}-2,7-dimethylindazol-6-ol]	1 to 10	1 to 10	0.1 to 1	> 10	> 10
C[C@@H]1CN(c2cnc3nc(-c4cc5cn(C)nc5cc4O)cc(Cl)c3c2)C[C@H](C)N1 [Compound 208]	1 to 10	1 to 10	< 0.1	1 to 10	1 to 10
CNC1CCN(c2cnc3nc(-c4cc5cn(C)nc5c(C)c4O)nc(OC)c3c2)C1 (centres unmarked) [Compound 161, 5-{4-methoxy-6-[3-(methylamino)pyrrolidin-1-yl]pyrido[2,3-d]pyrimidin-2-yl}-2,7-dimethylindazol-6-ol]	0.1 to 1	0.1 to 1	< 0.1	0.1 to 1	0.1 to 1
Cc1cn2nc(-c3ccc4cc(NC5CCNCC5)cnc4n3)cc(C)c2n1 [Compound 210, 7-{2,8-dimethylimidazo[1,2-b]pyridazin-6-yl}-N-(piperidin-4-yl)-1,8-naphthyridin-3-amine; trifluoroacetic acid]	1 to 10	1 to 10	1 to 10	1 to 10	1 to 10
Cc1c(O)c(-c2cc(-c3ccccn3)c3cc(N4C[C@@H](C)N[C@@H](C)C4)cnc3n2)cc2cn(C)nc12 [Compound 217, 5-{6-[(3R,5S)-3,5-dimethylpiperazin-1-yl]-4-(pyridin-2-yl)-1,8-naphthyridin-2-yl}-2,7-dimethylindazol-6-ol]	> 10	> 10	1 to 10	1 to 10	> 10
C[C@H]1CN(c2cnc3nc(-c4cc(F)c5nn(C)cc5c4)cc(Cl)c3c2)C[C@H](C)N1 [Compound 250]	0.1 to 1	0.1 to 1	< 0.1	0.1 to 1	0.1 to 1
COc1nc(-c2cc3cn(C)nc3c(C)c2O)nc2ncc(N3CCNCC3)cc12 [Compound 162, 5-[4-methoxy-6-(piperazin-1-yl)pyrido[2,3-d]pyrimidin-2-yl]-2,7-dimethylindazol-6-ol]	0.1 to 1	0.1 to 1	< 0.1	0.1 to 1	0.1 to 1
Cn1cc2cc(-c3cc(Cl)c4cc(N5CCN6CCCC6C5)cnc4n3)cc(F)c2n1 (centres unmarked) [Compound 216, 4-chloro-2-(7-fluoro-2-methylindazol-5-yl)-6-{hexahydro-1H-pyrrolo[1,2-a]pyrazin-2-yl}-1,8-naphthyridine trifluoroacetic acid]	1 to 10	1 to 10	0.1 to 1	1 to 10	1 to 10
Cc1c(O)c(-c2ncc3cc(N4C[C@@H](C)N[C@@H](C)C4)cnc3n2)cc2cn(C)nc12 [Compound 214]	0.1 to 1	0.1 to 1	0.1 to 1	1 to 10	1 to 10
Cc1c(O)c(-c2ncc3cc(N4CC[C@H](N)C4)cnc3n2)cc2cn(C)nc12 [Compound 160, (S)-5-(6-(3-aminopyrrolidin-1-yl)pyrido[2,3-d]pyrimidin-2-yl)-2,7-dimethyl-2H-indazol-6-ol 2,2,2-trifluoroacetate]	0.1 to 1	0.1 to 1	< 0.1	0.1 to 1	0.1 to 1
Cn1cc2cc(-c3ccc4cc(N5CC[C@H](NC(C)(C)C)C5)cnc4n3)c(O)cc2n1 (single isomer, unassigned) [Compound 200]	1 to 10	1 to 10	0.1 to 1	1 to 10	1 to 10

Second part, led by results:

IC50 [1, 4] [µM]	IC50 [1, 5] [µM]	IC50 [2] [µM]	IC50 [3] [µM]	SMILES	AC50 [1, 6] [µM]
< 0.1	< 0.1	0.1 to 1	0.1 to 1	Cn1cc2cc(-c3cnc4nc(N5CCC(NC6CC6)C5)ccc4n3)c(O)c(F)c2n1 (centres unmarked) [Compound 178, 5-[6-[3-(cyclopropylamino)pyrrolidin-1-yl]pyrido[2,3-b]pyrazin-2-yl]-7-fluoro-2-methyl-indazol-6-ol]	0.1 to 1
< 0.1	< 0.1	< 0.1	0.1 to 1	Cc1c(O)c(-c2ncc3cc(N4CC[C@@H](N)C4)cnc3n2)cc2cn(C)nc12 [Compound 159, (R)-5-(6-(3-aminopyrrolidin-1-yl)pyrido[2,3-d]pyrimidin-2-yl)-2,7-dimethyl-2H-indazol-6-ol 2,2,2-trifluoroacetate]	0.1 to 1
0.1 to 1	0.1 to 1	< 0.1	0.1 to 1	C[C@H]1CN(c2cnc3nc(-c4cc5cn(C)nc5cc4O)cc(Cl)c3c2)C[C@H](C)N1 [Compound 242]	0.1 to 1
0.1 to 1	0.1 to 1	< 0.1	1 to 10	C[C@@H]1CN(c2cnc3nc(-c4cc5cn(C)nc5c(F)c4O)cc(C#N)c3c2)C[C@H](C)N1 [Compound 266, 6-[(3R,5S)-3,5-dimethylpiperazin-1-yl]-2-(7-fluoro-6-hydroxy-2-methylindazol-5-yl)-1,8-naphthyridine-4-carbonitrile hydrochloride]	1 to 10
0.1 to 1	0.1 to 1	< 0.1	0.1 to 1	Cn1cc2cc(-c3cc(Cl)c4cc(N5CCNCC5)cnc4n3)cc(F)c2n1 [Compound 103]	1 to 10
< 0.1	< 0.1	< 0.1	< 0.1	CN[C@@H]1CCN(c2cnc3nc(-c4cc5cn(C)nc5c(F)c4O)cc(Cl)c3c2)C1 [Compound 271]	< 0.1
< 0.1	< 0.1	< 0.1	< 0.1	Cn1cc2cc(-c3cnc4cc(N5CC[C@H](NC6CC6)C5)ccc4n3)c(O)c(F)c2n1 [Compound 176, 5-[6-[(3S)-3-(cyclopropylamino)318quinoxaline-1-yl]318quinoxaline-2-yl]-7-fluoro-2-methyl-indazol-6-ol]	< 0.1
< 0.1	< 0.1	< 0.1	< 0.1	CN[C@@H]1CCN(c2cnc3nc(-c4cc5cn(C)nc5c(C)c4O)nc(OC)c3c2)C1 [Compound 211, 5-{4-methoxy-6-[(3R)-3-(methylamino)pyrrolidin-1-yl]pyrido[2,3-d]pyrimidin-2-yl}-2,7-dimethylindazol-6-ol]	< 0.1
< 0.1	< 0.1	< 0.1	0.1 to 1	CN[C@H]1CCN(c2cnc3nc(-c4cc5cn(C)nc5c(C)c4O)nc(OC)c3c2)C1 [Compound 212, 5-{4-methoxy-6-[(3S)-3-(methylamino)pyrrolidin-1-yl]pyrido[2,3-d]pyrimidin-2-yl}-2,7-dimethylindazol-6-ol]	0.1 to 1
